According to paper PMC6728800, “Effect of piceatannol-rich passion fruit seed extract on human glyoxalase I–mediated cancer cell growth” (Biochemistry and Biophysics Reports, 2019):
Read-outs that look alike come from different tables or passages of the source.

Molecular target: T1, human glyoxalase I (GLO I) (Homo sapiens, UniProt Q04760)
T1 construct: gene GLO1; recombinant GLO I
T1 sequence (Q04760 2-184): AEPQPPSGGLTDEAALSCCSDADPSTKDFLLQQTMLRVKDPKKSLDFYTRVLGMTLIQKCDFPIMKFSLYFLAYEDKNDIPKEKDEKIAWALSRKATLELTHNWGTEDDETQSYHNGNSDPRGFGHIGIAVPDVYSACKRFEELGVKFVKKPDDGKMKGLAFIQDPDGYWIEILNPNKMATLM
Test: spectrophotometric assay of S-D-lactoylglutathione formation at […] nm with recombinant GLO I
Type: biochemical

IC50 (read-out: IC50) [nM]	Compound	IC50 [nM]
	Oc1cc(O)cc(/C=C/c2ccc(O)c(O)c2)c1 [piceatannol]	750
4200	Oc1cc(O)cc(C2c3c(/C=C/c4ccc(O)c(O)c4)cc(O)cc3OC2c2ccc(O)c(O)c2)c1 (centres unmarked) [scirpusin B]	
